Here are results for 26 molecules from patent publication US20230219986A1, “NOVEL AMINOPYRIMIDINE EGFR INHIBITOR” (QILU PHARMACEUTICAL CO., LTD., priority 2020, published 2023).

Assay [1] concerns the target T1, wild-type EGFR (Homo sapiens, UniProt P00533).
T1 construct: purchased Signalchem
The experiment in a line: Enzymology experiment in vitro (HTRF/FRET kinase activity), wild-type EGFR. It counts as biochemical. The following applies: HTRF KinEASE-TK, read-out: EGFR (WT) IC50. The essentials:
(§1)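 Kinase reaction run 40 min at room temperature with peptide and ATP after a 10 min compound–enzyme preincubation. Phosphorylation read as HTRF signal after 1 h with Eu³⁺ antibody, XL665-streptavidin and EDTA (Cisbio KinEASE-TK).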
Background: Time-resolved FRET reads energy transfer from a long-lived donor to a nearby acceptor.

For assay [2], the target named is T2, L858R/T790M/C797S triple mutant EGFR (Homo sapiens, UniProt P00533, C797S/L858R/T790M).
T2 construct: purchased Signalchem
The experiment in a line: Enzymology experiment in vitro (HTRF/FRET kinase activity), L858R/T790M/C797S triple mutant EGFR. It counts as biochemical. The following applies: HTRF KinEASE-TK, read-out: EGFR (L858R/T790M/C797S) IC50. An outline of the steps:
as §1

Assay [3] concerns EGFR wild-type cell line A431. The experiment in a line: Cell proliferation inhibition experiment (CellTiter-Glo), A431. It counts as cell-based. The following applies: Homo sapiens, A-431, 72 h, A431 cells, Cell Titer-Glo, read-out: A431 EGFR WT IC50. An outline of the steps: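 Luminescent CellTiter-Glo readout, 30 min at room temperature, after 72 h compound exposure at 37° C., 5% CO2 with 0.1% DMSO final. EGFR wild-type A431 cells were seeded at 800 per well and grown 24 h before dosing. IC50 derived from the dose-response.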

In assay [4] the target is Ba/F3 De119/T790M/C797S EGFR triple mutant cell line (Homo sapiens, UniProt P00533, T790M/C797S, cells depend on it, form not given). The experiment in a line: Cell proliferation inhibition experiment (CellTiter-Glo), Ba/F3 De119/T790M/C797S. It counts as cell-based. The conditions noted are these: Ba/F3 Del19/T790M/C797S EGFR triple mutant cells, 72 hours, Cell Titer-Glo; read-out: Ba/F3 (Del19/T790M/C797S) IC50. (In general: In ATP-based viability assays light output follows the ATP content of the culture.)

The target in assay [5] is Ba/F3 L858R/T790M/C797S EGFR triple mutant cell line (Homo sapiens, UniProt P00533, T790M/C797S/L858R, cells depend on it). Description: Cell proliferation inhibition experiment (CellTiter-Glo), Ba/F3 L858R/T790M/C797S. The following applies: 72 hours, Cell Titer-Glo, read-out: Ba/F3 (L858R/T790M/C797S) IC50. It counts as cell-based.

SMILES strings stand for the structures.

Ba/F3 De119/T790M/C797S EGFR triple mutant cell line, sequence (P00533 with tags, fused parts or gaps DEL746-750/T790M/C797S, form open): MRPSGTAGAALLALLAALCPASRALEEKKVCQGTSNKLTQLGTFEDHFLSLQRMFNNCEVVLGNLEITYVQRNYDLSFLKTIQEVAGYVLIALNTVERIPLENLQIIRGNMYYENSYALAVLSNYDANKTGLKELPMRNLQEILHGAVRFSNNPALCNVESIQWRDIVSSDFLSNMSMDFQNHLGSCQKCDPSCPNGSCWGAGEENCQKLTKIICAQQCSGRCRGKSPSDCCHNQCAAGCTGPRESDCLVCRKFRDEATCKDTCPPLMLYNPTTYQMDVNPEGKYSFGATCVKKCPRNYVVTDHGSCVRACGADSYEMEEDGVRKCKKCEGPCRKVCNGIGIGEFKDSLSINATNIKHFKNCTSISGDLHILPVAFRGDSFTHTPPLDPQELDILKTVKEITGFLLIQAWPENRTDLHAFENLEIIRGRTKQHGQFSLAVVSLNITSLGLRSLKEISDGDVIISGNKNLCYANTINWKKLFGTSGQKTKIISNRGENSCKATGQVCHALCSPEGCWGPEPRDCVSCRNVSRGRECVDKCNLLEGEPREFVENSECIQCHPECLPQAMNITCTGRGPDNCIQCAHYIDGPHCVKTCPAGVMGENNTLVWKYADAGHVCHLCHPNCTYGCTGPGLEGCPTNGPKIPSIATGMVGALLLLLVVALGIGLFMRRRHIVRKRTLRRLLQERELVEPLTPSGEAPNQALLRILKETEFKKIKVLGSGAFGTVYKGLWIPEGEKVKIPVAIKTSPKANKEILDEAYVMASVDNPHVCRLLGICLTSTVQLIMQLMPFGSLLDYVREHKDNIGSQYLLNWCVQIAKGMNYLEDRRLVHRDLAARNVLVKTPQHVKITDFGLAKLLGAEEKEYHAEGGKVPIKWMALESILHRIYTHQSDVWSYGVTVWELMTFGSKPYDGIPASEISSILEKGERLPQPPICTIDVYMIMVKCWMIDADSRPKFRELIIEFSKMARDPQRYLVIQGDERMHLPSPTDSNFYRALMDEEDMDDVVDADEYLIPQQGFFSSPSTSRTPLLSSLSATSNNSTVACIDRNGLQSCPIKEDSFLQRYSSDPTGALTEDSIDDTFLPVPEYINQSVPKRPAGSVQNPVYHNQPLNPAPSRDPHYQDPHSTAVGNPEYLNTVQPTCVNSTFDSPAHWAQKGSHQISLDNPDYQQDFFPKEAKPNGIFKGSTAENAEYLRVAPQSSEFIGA
Ba/F3 L858R/T790M/C797S EGFR triple mutant cell line, sequence (P00533 whole entry T790M/C797S/L858R): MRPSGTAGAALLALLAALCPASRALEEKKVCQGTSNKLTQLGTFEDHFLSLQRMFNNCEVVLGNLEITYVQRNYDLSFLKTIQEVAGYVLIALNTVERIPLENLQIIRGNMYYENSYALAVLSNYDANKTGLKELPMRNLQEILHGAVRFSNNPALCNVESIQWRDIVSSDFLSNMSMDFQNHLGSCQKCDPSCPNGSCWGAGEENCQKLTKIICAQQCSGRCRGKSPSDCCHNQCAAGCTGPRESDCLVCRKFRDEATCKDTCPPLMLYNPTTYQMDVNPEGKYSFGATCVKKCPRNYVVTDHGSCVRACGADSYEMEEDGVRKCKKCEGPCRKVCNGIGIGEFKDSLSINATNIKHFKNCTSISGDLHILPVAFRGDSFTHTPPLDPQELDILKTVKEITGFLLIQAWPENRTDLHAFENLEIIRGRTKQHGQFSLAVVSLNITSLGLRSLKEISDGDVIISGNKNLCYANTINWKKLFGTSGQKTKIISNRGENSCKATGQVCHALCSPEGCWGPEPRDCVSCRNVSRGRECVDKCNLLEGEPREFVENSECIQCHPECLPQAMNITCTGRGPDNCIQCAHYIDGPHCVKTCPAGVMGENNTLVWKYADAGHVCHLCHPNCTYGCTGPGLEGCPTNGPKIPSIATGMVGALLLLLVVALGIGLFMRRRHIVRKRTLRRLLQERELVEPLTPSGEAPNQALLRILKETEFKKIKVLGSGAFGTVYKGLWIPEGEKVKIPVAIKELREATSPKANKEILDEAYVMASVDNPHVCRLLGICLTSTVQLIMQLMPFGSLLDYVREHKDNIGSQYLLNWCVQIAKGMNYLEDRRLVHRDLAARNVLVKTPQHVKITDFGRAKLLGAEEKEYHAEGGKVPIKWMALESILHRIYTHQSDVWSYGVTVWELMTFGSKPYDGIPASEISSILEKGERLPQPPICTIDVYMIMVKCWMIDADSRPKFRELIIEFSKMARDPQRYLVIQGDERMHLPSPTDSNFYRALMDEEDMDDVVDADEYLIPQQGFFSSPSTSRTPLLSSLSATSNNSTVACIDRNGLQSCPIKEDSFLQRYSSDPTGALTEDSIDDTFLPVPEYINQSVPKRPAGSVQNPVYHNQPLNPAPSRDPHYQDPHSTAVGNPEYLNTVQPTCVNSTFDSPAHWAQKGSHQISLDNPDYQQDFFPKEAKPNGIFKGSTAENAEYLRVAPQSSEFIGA
T2 sequence (P00533 25-1210 T790M/C797S/L858R): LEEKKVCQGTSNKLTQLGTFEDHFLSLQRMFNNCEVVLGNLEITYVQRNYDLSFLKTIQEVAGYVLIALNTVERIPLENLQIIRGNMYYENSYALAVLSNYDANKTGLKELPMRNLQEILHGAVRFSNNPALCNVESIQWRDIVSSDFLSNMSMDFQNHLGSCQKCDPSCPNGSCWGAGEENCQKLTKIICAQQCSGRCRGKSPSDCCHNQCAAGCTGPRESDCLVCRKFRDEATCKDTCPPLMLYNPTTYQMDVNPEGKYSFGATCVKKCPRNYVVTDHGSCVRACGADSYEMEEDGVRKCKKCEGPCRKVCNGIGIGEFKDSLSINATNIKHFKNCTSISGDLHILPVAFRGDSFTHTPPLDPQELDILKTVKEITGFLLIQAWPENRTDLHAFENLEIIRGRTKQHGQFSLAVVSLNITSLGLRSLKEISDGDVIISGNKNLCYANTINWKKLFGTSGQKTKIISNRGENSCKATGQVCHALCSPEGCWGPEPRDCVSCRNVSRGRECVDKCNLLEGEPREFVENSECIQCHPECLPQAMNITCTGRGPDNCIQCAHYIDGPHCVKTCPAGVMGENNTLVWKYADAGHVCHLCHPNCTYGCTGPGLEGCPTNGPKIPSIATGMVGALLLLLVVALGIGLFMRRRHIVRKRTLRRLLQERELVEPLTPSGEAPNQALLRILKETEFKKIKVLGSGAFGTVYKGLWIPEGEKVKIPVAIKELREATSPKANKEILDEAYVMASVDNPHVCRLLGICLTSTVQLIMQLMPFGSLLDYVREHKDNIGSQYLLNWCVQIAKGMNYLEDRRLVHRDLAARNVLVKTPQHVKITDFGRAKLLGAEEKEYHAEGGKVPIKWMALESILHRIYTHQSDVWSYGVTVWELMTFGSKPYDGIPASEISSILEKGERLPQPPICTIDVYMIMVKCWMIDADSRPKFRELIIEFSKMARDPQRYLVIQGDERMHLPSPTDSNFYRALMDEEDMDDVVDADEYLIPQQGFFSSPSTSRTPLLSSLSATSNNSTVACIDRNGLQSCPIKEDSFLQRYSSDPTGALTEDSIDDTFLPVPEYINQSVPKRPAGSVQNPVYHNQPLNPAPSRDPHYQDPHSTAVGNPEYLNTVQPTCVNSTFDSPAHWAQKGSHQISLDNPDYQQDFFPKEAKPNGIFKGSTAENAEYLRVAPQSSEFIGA
T1 sequence (P00533 25-1210): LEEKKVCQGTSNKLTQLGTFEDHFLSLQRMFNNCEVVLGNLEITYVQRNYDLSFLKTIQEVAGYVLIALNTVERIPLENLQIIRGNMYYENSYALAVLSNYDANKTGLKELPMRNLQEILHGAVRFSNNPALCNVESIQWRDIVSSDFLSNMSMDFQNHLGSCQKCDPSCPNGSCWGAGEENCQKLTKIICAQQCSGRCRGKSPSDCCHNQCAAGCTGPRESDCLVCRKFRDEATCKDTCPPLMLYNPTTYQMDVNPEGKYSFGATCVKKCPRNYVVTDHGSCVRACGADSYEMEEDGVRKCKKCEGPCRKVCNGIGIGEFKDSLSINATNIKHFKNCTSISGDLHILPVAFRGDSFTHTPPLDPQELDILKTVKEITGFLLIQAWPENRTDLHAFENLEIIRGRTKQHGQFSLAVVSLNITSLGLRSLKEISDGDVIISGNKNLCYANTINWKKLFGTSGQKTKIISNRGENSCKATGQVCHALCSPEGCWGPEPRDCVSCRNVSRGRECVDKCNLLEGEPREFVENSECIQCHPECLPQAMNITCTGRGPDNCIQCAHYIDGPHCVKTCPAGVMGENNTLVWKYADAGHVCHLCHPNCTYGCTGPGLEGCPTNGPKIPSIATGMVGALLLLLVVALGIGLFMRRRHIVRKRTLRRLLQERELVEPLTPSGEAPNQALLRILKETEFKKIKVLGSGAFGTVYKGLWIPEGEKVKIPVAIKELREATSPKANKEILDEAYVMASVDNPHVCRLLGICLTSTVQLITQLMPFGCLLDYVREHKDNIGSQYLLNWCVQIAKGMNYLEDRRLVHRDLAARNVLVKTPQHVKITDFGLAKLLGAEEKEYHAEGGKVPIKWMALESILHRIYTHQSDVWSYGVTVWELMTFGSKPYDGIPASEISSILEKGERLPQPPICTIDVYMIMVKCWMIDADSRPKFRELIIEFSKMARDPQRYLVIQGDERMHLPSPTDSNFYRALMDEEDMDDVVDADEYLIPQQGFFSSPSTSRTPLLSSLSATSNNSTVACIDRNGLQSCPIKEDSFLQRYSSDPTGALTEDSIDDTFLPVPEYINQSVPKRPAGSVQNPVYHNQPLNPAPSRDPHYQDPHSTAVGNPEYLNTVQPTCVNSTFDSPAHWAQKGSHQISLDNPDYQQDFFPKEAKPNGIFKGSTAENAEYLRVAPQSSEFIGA

For the molecule `COC[C@H]1CN(c2cc(OC)c(Nc3ncc(Br)c(Nc4ccc5nccnc5c4P(C)(C)=O)n3)cc2-c2cnn(C)c2)CCO1` [compound 152], the IC50 came out at 4.24 nM in assay [1], 0.35 nM in assay [2] and 133 nM in assay [3]. The results for the GI50 in assay [4] and in assay [5] were 1.06 nM and 4.59 nM, respectively.
In the same order, the values of `COc1cc(N2CCN(C)C(CF)C2)c(-c2cnn(C)c2)cc1Nc1ncc(Br)c(Nc2ccc3nccnc3c2P(C)(C)=O)n1` (stereo not shown) [compound 153] are 3.02 nM, 0.22 nM, 61.9 nM, 1.03 nM and 2.89 nM.
`COc1cc(NC(C)C(F)(F)F)c(-c2cnn(C)c2)cc1Nc1ncc(Br)c(Nc2ccc3nccnc3c2P(C)(C)=O)n1` (stereo not shown) [compound 154]: the IC50 is 36.9 nM in assay [1], 0.86 nM in assay [2] and 469 nM in assay [3]. The figures for the GI50 in assay [4] and in assay [5] were 5.26 nM and 15.4 nM, respectively.
In the case of `COc1cc(N2CCC(OCC3CC3)CC2)c(-c2cnn(C)c2)cc1Nc1ncc(Br)c(Nc2ccc3nccnc3c2P(C)(C)=O)n1` [compound 156], the IC50 in assay [1] stood at 33.5 nM; in assay [2], 3.81 nM; in assay [3] it was 372 nM. Further, the GI50 came to 1.05 nM in assay [4] and 7.29 nM in assay [5].
The corresponding values for `COc1cc(N2CCN(CC3CC3)CC2)c(-c2cnn(C)c2)cc1Nc1ncc(Br)c(Nc2ccc3nccnc3c2P(C)(C)=O)n1` [compound 157] are 3.6 nM, 0.33 nM, 49.4 nM, 1.28 nM and 7.05 nM.
As to `COc1cc(N2CCC(N3CCN(C)CC3)CC2)c(-c2cnn(C)c2)cc1Nc1ncc(Br)c(Nc2cc3c(cc2N(C)S(C)(=O)=O)CC3)n1` [compound 158], the results for the IC50 in assay [1], in assay [2] and in assay [3] were 2.48 nM, 0.81 nM and 166 nM, respectively. The GI50 in assay [4] was determined as 3.28 nM; in assay [5], 6.76 nM.
On to `COc1cc(N2CCC(N3CC(F)C3)CC2)c(-c2cnn(C)c2)cc1Nc1ncc(Br)c(Nc2ccc3nccnc3c2P(C)(C)=O)n1` [compound 159], for which the IC50 in assay [1] was determined as 1.54 nM; in assay [2], 0.7 nM; in assay [3] it was 114 nM. Besides, the results for the GI50 in assay [4] and in assay [5] were 0.93 nM and 4.11 nM, respectively.
The corresponding values for `COc1cc(N2CCOCC2)c(-c2cnn(C)c2)cc1Nc1ncc(Br)c(Nc2ccc3ncccc3c2P(C)(C)=O)n1` [compound 160] are 2.32 nM, 0.26 nM, 208 nM, 1.56 nM and 9.04 nM.
The corresponding values for `COc1cc(N2CCN3CCOCC3C2)c(-c2cnn(C)c2)cc1Nc1ncc(Br)c(Nc2ccc3nccnc3c2P(C)(C)=O)n1` (stereo not shown) [compound 161] are 2.71 nM, 0.39 nM, 154 nM, 2.36 nM and 6.39 nM.
Turning to `COCC1CCCN(c2cc(OC)c(Nc3ncc(Br)c(Nc4ccc5nccnc5c4P(C)(C)=O)n3)cc2-c2cnn(C)c2)C1` (stereo not shown) [compound 162], the IC50 in assay [1] was 20.6 nM; in assay [2], 2.28 nM; in assay [3], 518 nM. Also, the GI50 turned out to be 6.2 nM in assay [4] and 18 nM in assay [5].
The corresponding values for `COc1cc(N2CCC(N3CCO[C@H](C)C3)CC2)c(-c2cnn(C)c2)cc1Nc1ncc(Br)c(Nc2ccc3nccnc3c2P(C)(C)=O)n1` [compound 163] are 1.89 nM, 0.28 nM, 71.8 nM, 0.62 nM and 1.97 nM.
On to `COc1cc(N2CCN(C(C)C)C(CF)C2)c(-c2cnn(C)c2)cc1Nc1ncc(Br)c(Nc2ccc3nccnc3c2P(C)(C)=O)n1` (stereo not shown) [compound 164], for which the IC50 in assay [1] was 5.3 nM; in assay [2], 0.73 nM; in assay [3] it was 195 nM. For the same molecule, the GI50 was found to be 3.22 nM in assay [4] and 8.26 nM in assay [5].
The corresponding values for `COc1cc(N2CCC(N3CCO[C@@H](C)C3)CC2)c(-c2cnn(C)c2)cc1Nc1ncc(Br)c(Nc2ccc3nccnc3c2P(C)(C)=O)n1` [compound 165] are 1.36 nM, 0.69 nM, 70.2 nM, 0.8 nM and 2.62 nM.
In the same order, the values of `COc1cc(N2CCN3CCCC[C@H]3C2)c(-c2cnn(C)c2)cc1Nc1ncc(Br)c(Nc2ccc3nccnc3c2P(C)(C)=O)n1` [compound 166] are 3.81 nM, 0.48 nM, 92.1 nM, 1.58 nM and 5.05 nM.
On to `COc1cc(N2CCC3(CCN(CC4CC4)CC3)CC2)c(-c2cnn(C)c2)cc1Nc1ncc(Br)c(Nc2ccc3nccnc3c2P(C)(C)=O)n1` [compound 167], for which the IC50 worked out at 1.95 nM in assay [1], 0.79 nM in assay [2] and 47.4 nM in assay [3]. In addition, the GI50 in assay [4] came to 2.97 nM; in assay [5] it was 4.34 nM.
As to `COc1cc(N2CCC3CCN(C)C3C2)c(-c2cnn(C)c2)cc1Nc1ncc(Br)c(Nc2ccc3nccnc3c2P(C)(C)=O)n1` (stereo not shown) [compound 168], the IC50 in assay [1] stood at 2.57 nM; in assay [2], 0.35 nM; in assay [3], 67.4 nM. The GI50 in assay [4] was determined as 0.71 nM; in assay [5], 4.2 nM.
For `COc1cc(N2CCO[C@H](C)C2)c(-c2cnn(C)c2)cc1Nc1ncc(Br)c(Nc2ccc3nccnc3c2P(C)(C)=O)n1` [compound 169], the figures for the IC50 in assay [1], in assay [2] and in assay [3] were 4.39 nM, 0.73 nM and 175 nM, respectively. Moreover, the GI50 was 2.36 nM in assay [4] and 4.24 nM in assay [5].
The corresponding values for `COc1cc(N2CCO[C@@H](C)C2)c(-c2cnn(C)c2)cc1Nc1ncc(Br)c(Nc2ccc3nccnc3c2P(C)(C)=O)n1` [compound 170] are 4.94 nM, 0.45 nM, 280 nM, 1.8 nM and 8.14 nM.
The corresponding values for `COc1cc(N2CCOCC2)c(-c2cnn(C)c2)cc1Nc1ncc(Br)c(Nc2ccc3nccnc3c2N(C)S(C)(=O)=O)n1` [compound 171, N-(6-((5-bromo-2-((2-methoxy-5-(1-methyl-1H-pyrazol-4-yl)-4-morpholinophenyl)amino)pyrimidin-4-yl)amino)quinoxalin-5-yl)-N-methylmethanesulfonamide] are 4.59 nM, 0.29 nM, 623 nM, 2.13 nM and 7.23 nM.
In the same order, the values of `COc1cc(N2CCC(N3CC4(CN(C)C4)C3)CC2)c(-c2cnn(C)c2)cc1Nc1ncc(Br)c(Nc2ccc3nccnc3c2P(C)(C)=O)n1` [compound 172] are 0.69 nM, 0.14 nM, 329 nM, 102 nM and 328 nM.
With `COc1cc(N2CCC(N(C)C(C)C(F)(F)F)CC2)c(-c2cnn(C)c2)cc1Nc1ncc(Br)c(Nc2ccc3nccnc3c2P(C)(C)=O)n1` (stereo not shown) [compound 173], the IC50 stood at 50.7 nM in assay [1], 6 nM in assay [2] and 738 nM in assay [3]. The GI50 in assay [4] is 11.2 nM; in assay [5], 24.5 nM.
As for `COc1cc(N2CCN3CCCC[C@@H]3C2)c(-c2cnn(C)c2)cc1Nc1ncc(Br)c(Nc2ccc3nccnc3c2P(C)(C)=O)n1` [compound 175], the IC50 in assay [1] amounted to 3.1 nM; in assay [2] it was 0.33 nM; in assay [3], 41.3 nM. Besides, the GI50 amounted to 1.7 nM in assay [4] and 5.38 nM in assay [5].
In the same order, the values of `COc1cc(N2CCN3CCC[C@@H]3C2)c(-c2cnn(C)c2)cc1Nc1ncc(Br)c(Nc2ccc3nccnc3c2P(C)(C)=O)n1` [compound 176] are 3.26 nM, 0.34 nM, 61.9 nM, 2.97 nM and 5.96 nM.
The corresponding values for `COc1cc(N2CCN(S(=O)(=O)C3CC3)CC2)c(-c2cnn(C)c2)cc1Nc1ncc(Br)c(Nc2ccc3nccnc3c2P(C)(C)=O)n1` [compound 178] are 7.68 nM, 1.29 nM, 168 nM, 2.86 nM and 13 nM.
The corresponding values for `COc1cc(N2CCC(N3CCC(OC)CC3)CC2)c(-c2cnn(C)c2)cc1Nc1ncc(Br)c(Nc2ccc3nccnc3c2P(C)(C)=O)n1` [compound 179] are 1.48 nM, 0.4 nM, 54.3 nM, 1.37 nM and 6.84 nM.
With `COc1cc(N2CCC(N3CCC(F)CC3)CC2)c(-c2cnn(C)c2)cc1Nc1ncc(Br)c(Nc2ccc3nccnc3c2P(C)(C)=O)n1` [compound 180], the IC50 in assay [1] came out at 1.4 nM; in assay [2], 0.36 nM; in assay [3] it was 64.8 nM. The results for the GI50 in assay [4] and in assay [5] were 4.13 nM and 6.53 nM, respectively.
